These results are taken from US20220370440A1 (Lead Discovery Center GmbH, priority 2018, published 2022).

The subject of data set [1] is A431. The data set is described as follows: A431 CellTiter-Glo. The data set is classed as cell-based. Conditions: Homo sapiens, A-431; 72 h compound incubation; read-out: A431 CTG IC50. Put shortly:
(§1)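 Cells seeded, after 24 h at 37° C/5% CO2 treated with compounds in DMSO at various concentrations for 72 h. Viability from ATP luminescence (CellTiter-Glo); DMSO and 10 μM Staurosporine as controls; IC50 from dose-response fit, plates accepted at Z′ ≥0.5.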

Data set [2] can be described thus: Metabolic stability in mouse liver microsomes without cofactor NADPH. Type of data set: in vitro ADME. Conditions: 3 μM test compound, mouse liver microsomes, without NADPH, 50 min, 37° C., LC-MS/MS. Put shortly: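 Test compound (3 μM) was incubated with mouse liver microsomes without NADPH at 37° C. Depletion was followed by LC-MS/MS over time up to 50 min.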
(Liver microsomes are a subcellular fraction often used to study metabolism.)

Data set [3] addresses Her2 Exon 20 INSYVMA Ba/F3 (Homo sapiens, UniProt P04626, DUP772-775, cells depend on it). The data set is described as follows: Her2 Exon 20 INSYVMA Ba/F3 CellTiter-Glo. Type of data set: cell-based. Conditions: CellTiter-Glo, 72 h, read-out: Her2 Exon 20 INSYVMA Ba/F3 CTG IC50. Put shortly: (§2)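 Seed Ba/F3 cells; 24 h, 37 °C/5% CO2. Add cpds in DMSO, multiple concs; 72 h. CellTiter-Glo, 10 min RT, luminescence. IC50 by curve fit. Z′ ≥0.5 from DMSO vs 10 μM staurosporine.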
A general note: Cellular ATP, detected with luciferase, serves as a proxy for viable cell number.

Data set [4] relates to H1975. Put plainly: H1975 CellTiter-Glo. The data set is classed as cell-based. Conditions: Homo sapiens, NCI-H1975; 72 h compound incubation; read-out: H1975 CTG IC50. In a few lines:
as §1

In data set [5] the target is T1, HER2 INS YVMA (Homo sapiens, UniProt P04626, INS775YVMA).
T1 construct: purchased DPF
The data set is described as follows: Lance Kinase Activity Assay, HER2 INS YVMA (Her2 Exon 20 INSYVMA Lance). Conditions: biochemical Lance assay. The data set is classed as biochemical. In a few lines: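 Kinase phosphorylates a ULight-labelled peptide substrate; Eu anti-phospho antibody gives TR-FRET (ex 340 nm, em 665/615 nm). Compounds in 1:3 serial dilution over 8 steps, reaction started with ATP, 1 h at room temperature, stopped with EDTA-containing detection mix for 1 h. IC50 from sigmoidal dose-response curves.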

The target in data set [6] is EGFR Exon 20 INSNPH Ba/F3 (Homo sapiens, UniProt P00533, DUP771-773, cells depend on it). Put plainly: EGFR Exon 20 INSNPH Ba/F3 CellTiter-Glo. The data set is classed as cell-based. Conditions: CellTiter-Glo, 72 h, read-out: EGFR Exon 20 INSNPH Ba/F3 CTG IC50. Put shortly: as §2
Data set [7] addresses EGFR wt (Homo sapiens, UniProt P00533). The data set is described as follows: EGFR wt Lance assay. Type of data set: biochemical. As to the method: (§3) Inhibition is indicated as […] [nM] (“−”=not measured). Compounds having an activity designated as “A” provided an IC50≤100 nM; compounds having an activity designated as “B” provided an 100 nM<IC50≤500 nM; compounds having an activity designated as “C” provided an 500 nM<IC50≤1000 nM; compounds having an activity designated as “D” provided an 1000 nM<IC50≤100000 nM; and compounds having an activity designated as “E” provided an IC50>10000 nM.

For data set [8], the target named is EGFR T790ML858R (Homo sapiens, UniProt P00533, L858R/T790M). The data set is described as follows: EGFR T790ML858R Lance assay. The data set is classed as biochemical. As to the method:
as §3

In general, IC50 refers to the point on the concentration scale where inhibition reaches its midpoint.

Chain of EGFR Exon 20 INSNPH Ba/F3 (P00533 with tags, fused parts or gaps DUP771-773): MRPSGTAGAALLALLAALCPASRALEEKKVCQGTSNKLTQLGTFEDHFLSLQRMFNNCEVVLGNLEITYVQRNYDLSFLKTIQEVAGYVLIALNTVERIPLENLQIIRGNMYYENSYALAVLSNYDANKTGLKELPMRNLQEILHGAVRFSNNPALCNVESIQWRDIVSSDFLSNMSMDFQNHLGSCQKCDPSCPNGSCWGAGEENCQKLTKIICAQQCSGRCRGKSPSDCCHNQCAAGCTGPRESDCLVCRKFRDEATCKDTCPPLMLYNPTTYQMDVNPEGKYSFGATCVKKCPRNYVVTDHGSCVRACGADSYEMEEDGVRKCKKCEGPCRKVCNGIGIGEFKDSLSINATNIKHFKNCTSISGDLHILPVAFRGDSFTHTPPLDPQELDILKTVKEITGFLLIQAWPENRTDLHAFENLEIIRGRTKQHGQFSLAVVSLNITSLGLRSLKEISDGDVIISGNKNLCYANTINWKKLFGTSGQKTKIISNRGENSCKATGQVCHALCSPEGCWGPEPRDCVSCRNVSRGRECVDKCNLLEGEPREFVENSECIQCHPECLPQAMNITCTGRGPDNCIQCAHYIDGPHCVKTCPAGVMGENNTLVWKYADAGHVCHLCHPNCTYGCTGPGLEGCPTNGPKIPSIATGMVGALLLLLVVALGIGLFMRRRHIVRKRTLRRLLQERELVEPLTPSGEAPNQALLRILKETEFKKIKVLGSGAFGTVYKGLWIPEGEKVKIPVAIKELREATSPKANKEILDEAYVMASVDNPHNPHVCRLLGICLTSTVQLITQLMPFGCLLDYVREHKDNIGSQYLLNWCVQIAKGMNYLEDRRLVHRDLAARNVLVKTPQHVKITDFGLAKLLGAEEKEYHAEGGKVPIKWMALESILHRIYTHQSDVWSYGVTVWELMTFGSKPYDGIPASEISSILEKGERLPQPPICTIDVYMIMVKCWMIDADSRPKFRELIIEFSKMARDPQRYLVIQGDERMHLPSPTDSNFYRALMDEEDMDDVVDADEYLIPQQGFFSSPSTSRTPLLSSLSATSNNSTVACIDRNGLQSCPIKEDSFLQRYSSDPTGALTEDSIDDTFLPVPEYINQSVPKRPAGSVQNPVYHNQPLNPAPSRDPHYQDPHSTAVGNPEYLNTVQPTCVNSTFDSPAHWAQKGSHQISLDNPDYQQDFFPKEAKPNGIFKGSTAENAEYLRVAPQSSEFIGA
Chain of EGFR wt (P00533 25-1210): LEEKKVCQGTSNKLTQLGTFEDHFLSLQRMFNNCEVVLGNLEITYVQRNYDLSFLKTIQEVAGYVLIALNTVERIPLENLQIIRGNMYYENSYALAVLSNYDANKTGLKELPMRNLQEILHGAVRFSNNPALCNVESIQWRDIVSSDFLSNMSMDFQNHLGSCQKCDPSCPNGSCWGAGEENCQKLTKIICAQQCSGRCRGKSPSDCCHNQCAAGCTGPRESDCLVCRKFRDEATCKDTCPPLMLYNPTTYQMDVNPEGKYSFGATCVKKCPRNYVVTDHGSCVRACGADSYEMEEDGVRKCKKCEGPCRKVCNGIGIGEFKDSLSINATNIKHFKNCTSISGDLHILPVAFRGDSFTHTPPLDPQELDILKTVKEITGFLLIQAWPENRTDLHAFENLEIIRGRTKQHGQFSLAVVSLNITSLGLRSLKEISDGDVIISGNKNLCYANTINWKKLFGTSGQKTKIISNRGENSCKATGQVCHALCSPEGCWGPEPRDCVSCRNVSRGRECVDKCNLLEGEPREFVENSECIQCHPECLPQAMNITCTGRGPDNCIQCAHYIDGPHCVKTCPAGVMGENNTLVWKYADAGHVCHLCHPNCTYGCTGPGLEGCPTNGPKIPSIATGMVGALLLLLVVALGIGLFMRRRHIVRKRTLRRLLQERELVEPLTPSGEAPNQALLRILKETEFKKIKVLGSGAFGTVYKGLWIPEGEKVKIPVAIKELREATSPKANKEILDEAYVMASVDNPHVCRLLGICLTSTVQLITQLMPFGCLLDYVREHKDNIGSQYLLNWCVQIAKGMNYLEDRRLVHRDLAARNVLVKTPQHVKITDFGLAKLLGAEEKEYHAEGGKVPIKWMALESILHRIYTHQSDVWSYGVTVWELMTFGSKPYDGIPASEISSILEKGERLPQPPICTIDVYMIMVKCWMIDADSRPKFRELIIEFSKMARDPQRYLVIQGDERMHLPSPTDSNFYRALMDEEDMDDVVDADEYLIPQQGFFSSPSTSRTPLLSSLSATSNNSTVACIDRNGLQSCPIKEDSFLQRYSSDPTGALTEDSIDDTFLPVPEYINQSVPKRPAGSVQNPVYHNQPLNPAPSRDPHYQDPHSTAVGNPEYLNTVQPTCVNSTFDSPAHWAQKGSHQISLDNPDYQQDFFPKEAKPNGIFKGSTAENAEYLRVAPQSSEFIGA
Chain of EGFR T790ML858R (P00533 25-1210 T790M/L858R): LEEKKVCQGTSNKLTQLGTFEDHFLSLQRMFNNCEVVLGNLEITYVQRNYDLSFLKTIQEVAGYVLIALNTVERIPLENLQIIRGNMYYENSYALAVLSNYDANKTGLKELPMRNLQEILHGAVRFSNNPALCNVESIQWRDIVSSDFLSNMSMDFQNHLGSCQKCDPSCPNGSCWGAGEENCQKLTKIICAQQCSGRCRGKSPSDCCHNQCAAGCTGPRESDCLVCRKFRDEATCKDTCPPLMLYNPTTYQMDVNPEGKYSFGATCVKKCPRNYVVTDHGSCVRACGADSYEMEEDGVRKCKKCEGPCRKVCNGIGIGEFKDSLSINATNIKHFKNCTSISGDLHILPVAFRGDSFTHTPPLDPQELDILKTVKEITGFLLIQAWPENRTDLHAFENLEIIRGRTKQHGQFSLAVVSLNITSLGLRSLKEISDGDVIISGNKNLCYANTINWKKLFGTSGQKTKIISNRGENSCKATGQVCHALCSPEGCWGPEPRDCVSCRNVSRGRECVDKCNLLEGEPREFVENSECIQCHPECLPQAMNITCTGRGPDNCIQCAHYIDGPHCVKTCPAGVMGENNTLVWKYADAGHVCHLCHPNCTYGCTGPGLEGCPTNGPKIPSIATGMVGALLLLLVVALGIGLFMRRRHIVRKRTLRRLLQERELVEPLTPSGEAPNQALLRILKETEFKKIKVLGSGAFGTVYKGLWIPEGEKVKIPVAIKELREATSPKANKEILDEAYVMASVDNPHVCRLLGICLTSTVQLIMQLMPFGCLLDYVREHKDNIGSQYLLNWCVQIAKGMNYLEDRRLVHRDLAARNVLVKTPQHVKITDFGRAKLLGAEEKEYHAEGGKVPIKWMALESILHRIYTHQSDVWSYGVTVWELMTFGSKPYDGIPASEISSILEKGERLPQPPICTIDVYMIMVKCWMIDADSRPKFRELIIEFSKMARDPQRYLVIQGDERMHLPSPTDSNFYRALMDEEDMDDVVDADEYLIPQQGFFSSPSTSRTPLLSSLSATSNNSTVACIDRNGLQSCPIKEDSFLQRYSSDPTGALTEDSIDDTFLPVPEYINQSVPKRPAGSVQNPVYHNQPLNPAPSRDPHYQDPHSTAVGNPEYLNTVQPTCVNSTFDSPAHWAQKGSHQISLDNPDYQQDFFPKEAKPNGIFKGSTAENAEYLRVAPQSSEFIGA
Chain of Her2 Exon 20 INSYVMA Ba/F3 (P04626 with tags, fused parts or gaps DUP772-775): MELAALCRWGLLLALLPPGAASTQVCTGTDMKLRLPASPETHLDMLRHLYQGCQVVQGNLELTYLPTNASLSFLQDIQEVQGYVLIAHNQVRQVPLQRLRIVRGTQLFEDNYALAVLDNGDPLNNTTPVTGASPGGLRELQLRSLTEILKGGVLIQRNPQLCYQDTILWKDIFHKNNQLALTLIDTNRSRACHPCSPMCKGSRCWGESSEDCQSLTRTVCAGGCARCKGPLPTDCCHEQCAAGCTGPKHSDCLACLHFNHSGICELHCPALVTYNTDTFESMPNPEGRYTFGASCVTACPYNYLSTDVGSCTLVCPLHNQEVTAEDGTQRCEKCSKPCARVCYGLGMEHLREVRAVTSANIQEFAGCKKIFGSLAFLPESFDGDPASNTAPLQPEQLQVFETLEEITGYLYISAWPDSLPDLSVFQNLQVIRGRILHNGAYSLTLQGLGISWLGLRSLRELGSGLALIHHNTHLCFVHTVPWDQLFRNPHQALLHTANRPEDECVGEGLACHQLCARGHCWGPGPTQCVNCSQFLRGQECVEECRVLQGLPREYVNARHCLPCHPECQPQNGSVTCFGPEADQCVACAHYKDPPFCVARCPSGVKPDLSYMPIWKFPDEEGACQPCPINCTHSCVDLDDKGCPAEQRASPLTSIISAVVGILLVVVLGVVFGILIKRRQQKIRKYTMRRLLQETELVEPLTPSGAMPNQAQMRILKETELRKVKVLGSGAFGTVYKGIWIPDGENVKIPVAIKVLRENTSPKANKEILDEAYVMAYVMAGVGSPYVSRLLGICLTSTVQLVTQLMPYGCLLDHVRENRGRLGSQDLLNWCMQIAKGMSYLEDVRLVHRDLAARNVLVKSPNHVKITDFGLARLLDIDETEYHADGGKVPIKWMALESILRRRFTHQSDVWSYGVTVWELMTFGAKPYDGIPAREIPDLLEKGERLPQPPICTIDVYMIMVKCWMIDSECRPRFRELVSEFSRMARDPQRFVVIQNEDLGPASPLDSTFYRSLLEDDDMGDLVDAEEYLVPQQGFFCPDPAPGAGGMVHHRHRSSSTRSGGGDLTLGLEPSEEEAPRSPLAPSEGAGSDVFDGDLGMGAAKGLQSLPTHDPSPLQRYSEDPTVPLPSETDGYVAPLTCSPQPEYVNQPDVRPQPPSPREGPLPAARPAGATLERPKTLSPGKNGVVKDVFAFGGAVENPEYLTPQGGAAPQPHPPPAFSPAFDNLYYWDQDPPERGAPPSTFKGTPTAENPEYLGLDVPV

On to `C=CC(=O)N1CCCc2ccc(-c3c(-c4ccc(OCCN(C)C)cc4)[nH]c4nccc(Cl)c34)cc21` [Example 92, 1-(7-(4-chloro-2-(4-(2-(dimethylamino)ethoxy)phenyl)-1H-pyrrolo[2,3-b]pyridin-3-yl)-3,4-dihydroquinolin-1(2H)-yl)prop-2-en-1-one], for which the concentration for half-maximal inhibition (IC50) in data set [1] was 1000 to 100000 nM; in data set [4], 500 to 1000 nM; in data set [5] it was ≤ 100 nM; in data set [7] it was ≤ 100 nM; in data set [8], ≤ 100 nM. For the same molecule, the “Stability in presence of mouse liver microsomes without cofactor NADPH [% remaining after 50 min]” value in data set [2] was >99 % remaining after 50 min. The GI50 lay within 500 to 1000 nM in data set [3] and 1000 to 10000 nM in data set [6].
Regarding `C=CC(=O)Nc1cc(-c2c(-c3ccc(CN(C)C)cc3)[nH]c3ncc(C(=O)OC(C)C)cc23)cc(F)c1C` [Example 177, isopropyl 3-(3-acrylamido-5-fluoro-4-methylphenyl)-2-(4-((dimethylamino)methyl)phenyl)-1H-pyrrolo[2,3-b]pyridine-5-carboxylate], the IC50 in data set [1] is 1000 to 100000 nM; in data set [4], 100 to 500 nM; in data set [5] it was ≤ 100 nM; in data set [7] it was ≤ 100 nM; in data set [8], ≤ 100 nM. In data set [2], the “Stability in presence of mouse liver microsomes without cofactor NADPH [% remaining after 50 min]” value was >99 % remaining after 50 min. Besides, the GI50 in data set [3] and in data set [6] was 100 to 500 nM each time.
On to `C=CC(=O)N1CCc2ccc(-c3c(-c4cccc(CN5CCN(C)CC5)c4)[nH]c4nccc(Cl)c34)cc21` [Example 69, 1-(6-(4-chloro-2-(3-((4-methylpiperazin-1-yl)methyl)phenyl)-1H-pyrrolo[2,3-b]pyridin-3-yl)indolin-1-yl)prop-2-en-1-one], for which the IC50 in data set [1] is 500 to 1000 nM; in data set [4], ≤ 100 nM; in data set [5], ≤ 100 nM; in data set [7], ≤ 100 nM; in data set [8], ≤ 100 nM. For the same molecule, the “Stability in presence of mouse liver microsomes without cofactor NADPH [% remaining after 50 min]” value in data set [2] stood at 98 % remaining after 50 min. Moreover, the GI50 in data set [3] and in data set [6] was 100 to 500 nM each time.
Regarding `C=CC(=O)Nc1cc(-c2c(-c3ccc(N4CCN(C)CC4)cc3)[nH]c3ncc(C(=O)O)cc23)ccc1C` [Example 116, 3-(3-acrylamido-4-methylphenyl)-2-(4-(4-methylpiperazin-1-yl)phenyl)-1H-pyrrolo[2,3-b]pyridine-5-carboxylic acid 2,2,2-trifluoroacetate], the 50% inhibitory concentration (IC50) in data set [1] was > 10000 nM; in data set [4], > 10000 nM; in data set [5], ≤ 100 nM; in data set [7], ≤ 100 nM; in data set [8], ≤ 100 nM. Besides, the “Stability in presence of mouse liver microsomes without cofactor NADPH [% remaining after 50 min]” value in data set [2] was found to be 92 % remaining after 50 min. In addition, the GI50 in data set [3] and in data set [6] was > 10000 nM in each case.
For `C=CC(=O)Nc1cc(-c2c(-c3cnc(N4CCOCC4)nc3)[nH]c3nccc(Cl)c23)ccc1C` [Example 36, N-(5-(4-chloro-2-(2-morpholinopyrimidin-5-yl)-1H-pyrrolo[2,3-b]pyridin-3-yl)-2-methylphenyl)acrylamide], the 50% inhibitory concentration (IC50) in data set [1] was 1000 to 100000 nM; in data set [4], 100 to 500 nM; in data set [5], 500 to 1000 nM; in data set [7], ≤ 100 nM; in data set [8], ≤ 100 nM. Further, in data set [2], the “Stability in presence of mouse liver microsomes without cofactor NADPH [% remaining after 50 min]” value is listed as >99 % remaining after 50 min. Further, the GI50 in data set [3] and in data set [6] was 1000 to 10000 nM in each case.
In the case of `C=CC(=O)Nc1cc(-c2c(-c3ccc(N(C)CCN(C)C)cc3)[nH]c3ncc(C(=O)OC(C)C)cc23)cc(F)c1C` [Example 172, isopropyl 3-(3-acrylamido-5-fluoro-4-methylphenyl)-2-(4-((2-(dimethylamino)ethyl)(methyl)amino)phenyl)-1H-pyrrolo[2,3-b]pyridine-5-carboxylate], the IC50 in data set [1] was 1000 to 100000 nM; in data set [4] it was 100 to 500 nM; in data set [5], ≤ 100 nM; in data set [7], ≤ 100 nM; in data set [8], ≤ 100 nM. For the same molecule, in data set [2], the “Stability in presence of mouse liver microsomes without cofactor NADPH [% remaining after 50 min]” value was >99 % remaining after 50 min. For the same molecule, the GI50 in data set [3] and in data set [6] was 100 to 500 nM each time.
